Consider nine molecules from PMC5914168 (ChemMedChem, 2017).

Values joined by “and” are separate entries in the source; they are usually repeats but may differ in a detail not shown here. Identical values can stand only once. A value given as a limit tells only on which side of the number the result lay.

Series [1] deals with STK16 kinase domain (13-305) (Homo sapiens, UniProt O75716). In words: TR-FRET ligand binding displacement assay, STK16. (In TR-FRET formats the signal depends on donor and acceptor labels being close together.)
Chain of STK16 kinase domain (13-305) (O75716 13-305): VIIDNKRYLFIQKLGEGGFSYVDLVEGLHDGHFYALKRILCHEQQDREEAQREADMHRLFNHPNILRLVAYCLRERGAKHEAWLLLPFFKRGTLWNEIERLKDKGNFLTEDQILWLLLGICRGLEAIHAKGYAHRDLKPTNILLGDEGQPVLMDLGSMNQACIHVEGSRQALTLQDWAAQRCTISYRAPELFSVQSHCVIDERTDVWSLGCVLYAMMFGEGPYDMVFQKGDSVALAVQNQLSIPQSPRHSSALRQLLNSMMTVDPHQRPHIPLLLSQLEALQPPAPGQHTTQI
For series [2], the target named is T1, N-terminal Nano Luciferase/GAK fusion (NL-GAK) in HEK293 cells (Homo sapiens, UniProt O14976).
T1 sequence (O14976 1-1311): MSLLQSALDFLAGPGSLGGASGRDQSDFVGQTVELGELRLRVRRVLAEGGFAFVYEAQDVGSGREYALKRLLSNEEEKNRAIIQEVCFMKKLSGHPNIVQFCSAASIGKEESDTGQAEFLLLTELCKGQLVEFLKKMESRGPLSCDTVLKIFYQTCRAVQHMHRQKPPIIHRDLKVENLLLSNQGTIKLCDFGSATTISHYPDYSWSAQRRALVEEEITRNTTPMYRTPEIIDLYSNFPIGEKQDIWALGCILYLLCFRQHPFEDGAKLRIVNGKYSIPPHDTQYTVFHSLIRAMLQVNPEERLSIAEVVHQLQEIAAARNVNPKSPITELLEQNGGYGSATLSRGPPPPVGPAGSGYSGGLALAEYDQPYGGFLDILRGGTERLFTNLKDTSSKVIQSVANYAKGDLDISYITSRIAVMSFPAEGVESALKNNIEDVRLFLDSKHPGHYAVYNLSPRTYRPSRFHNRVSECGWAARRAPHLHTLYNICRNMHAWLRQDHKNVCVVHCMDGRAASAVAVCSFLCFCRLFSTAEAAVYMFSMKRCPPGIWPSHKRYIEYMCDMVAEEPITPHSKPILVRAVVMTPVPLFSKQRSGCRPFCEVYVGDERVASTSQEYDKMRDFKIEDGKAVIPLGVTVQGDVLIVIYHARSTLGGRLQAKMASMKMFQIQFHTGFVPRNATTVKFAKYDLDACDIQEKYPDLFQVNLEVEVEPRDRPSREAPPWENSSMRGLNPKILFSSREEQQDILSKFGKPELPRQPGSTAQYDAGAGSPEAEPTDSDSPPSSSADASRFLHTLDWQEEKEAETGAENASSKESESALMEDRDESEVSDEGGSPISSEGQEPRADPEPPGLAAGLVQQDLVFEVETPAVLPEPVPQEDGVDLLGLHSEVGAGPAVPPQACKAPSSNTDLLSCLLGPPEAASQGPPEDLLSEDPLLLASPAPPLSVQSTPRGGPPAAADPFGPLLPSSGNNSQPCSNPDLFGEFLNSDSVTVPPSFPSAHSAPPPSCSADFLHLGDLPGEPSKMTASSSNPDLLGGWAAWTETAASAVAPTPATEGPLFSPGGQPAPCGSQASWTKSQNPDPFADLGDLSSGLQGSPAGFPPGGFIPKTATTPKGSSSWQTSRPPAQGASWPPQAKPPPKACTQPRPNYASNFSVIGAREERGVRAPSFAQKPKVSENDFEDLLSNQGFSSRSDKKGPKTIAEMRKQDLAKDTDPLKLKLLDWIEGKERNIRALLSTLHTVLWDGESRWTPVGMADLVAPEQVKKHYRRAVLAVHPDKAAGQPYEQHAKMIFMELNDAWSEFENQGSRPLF
The experiment in a line: GAK nanoBRET cellular target engagement assay. The conditions noted are these: for IC50: NanoBRET GAK IC50, HEK293 cells, 8-point dose response, average of 2 experiments. On the technique in general: Bioluminescence resonance energy transfer reports proximity on the nanometre scale.

In series [3] the target is T2, GAK kinase domain (12-347) (Homo sapiens, UniProt O14976).
T2 sequence (O14976 12-347): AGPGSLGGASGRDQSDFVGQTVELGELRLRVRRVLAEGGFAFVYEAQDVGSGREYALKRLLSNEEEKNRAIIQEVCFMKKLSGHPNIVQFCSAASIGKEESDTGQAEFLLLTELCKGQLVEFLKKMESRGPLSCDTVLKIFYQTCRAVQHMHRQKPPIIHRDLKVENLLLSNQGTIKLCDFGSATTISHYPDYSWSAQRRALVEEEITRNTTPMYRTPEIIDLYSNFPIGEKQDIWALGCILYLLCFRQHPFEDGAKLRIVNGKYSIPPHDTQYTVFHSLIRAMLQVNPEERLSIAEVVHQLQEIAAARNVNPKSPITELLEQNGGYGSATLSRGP
The experiment in a line: TR-FRET ligand binding displacement assay, GAK. The conditions noted are these: for NAK selectivity (ratio of GAK Ki and Ki of nearest NAK family member): selectivity against the nearest NAK family member.

In series [4] the target is AAK1 kinase domain (31-396) (Homo sapiens, UniProt Q2M2I8). The experiment in a line: TR-FRET ligand binding displacement assay, AAK1.
Chain of AAK1 kinase domain (31-396) (Q2M2I8 31-396): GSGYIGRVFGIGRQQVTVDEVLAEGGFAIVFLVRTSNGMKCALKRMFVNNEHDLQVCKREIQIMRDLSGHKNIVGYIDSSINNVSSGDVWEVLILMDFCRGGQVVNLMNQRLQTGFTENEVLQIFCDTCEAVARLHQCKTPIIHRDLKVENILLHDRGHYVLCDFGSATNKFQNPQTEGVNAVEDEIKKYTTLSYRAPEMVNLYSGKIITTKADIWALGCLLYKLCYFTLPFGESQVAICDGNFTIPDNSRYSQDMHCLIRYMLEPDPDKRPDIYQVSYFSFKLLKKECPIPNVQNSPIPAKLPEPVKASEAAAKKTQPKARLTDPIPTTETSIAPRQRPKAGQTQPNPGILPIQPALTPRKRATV
For series [5], the target named is BMP2K kinase domain (38-345) (Homo sapiens, UniProt Q9NSY1). The experiment in a line: TR-FRET ligand binding displacement assay, BMP2K.
Chain of BMP2K kinase domain (38-345) (Q9NSY1 38-345): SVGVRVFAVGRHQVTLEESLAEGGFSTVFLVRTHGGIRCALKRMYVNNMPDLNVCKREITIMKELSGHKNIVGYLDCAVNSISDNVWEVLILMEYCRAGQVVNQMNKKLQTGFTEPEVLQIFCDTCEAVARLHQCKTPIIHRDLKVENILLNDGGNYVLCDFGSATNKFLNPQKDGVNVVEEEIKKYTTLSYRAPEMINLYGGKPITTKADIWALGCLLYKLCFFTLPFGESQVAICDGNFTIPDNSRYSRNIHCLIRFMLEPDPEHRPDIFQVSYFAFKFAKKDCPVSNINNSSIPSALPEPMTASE
Series [6] deals with kinases in SUM159 cell lysate (>240 protein kinases profiled). The experiment in a line: Multiplexed inhibitor beads / mass spectrometry. The series is classed as binding. The conditions noted are these: SUM159 cell lysate.
The target in series [7] is T3, kinases in SUM159 cell lysate (>240 protein kinases profiled) (Homo sapiens, UniProt O14976).
T3 sequence (O14976 1-1311): T1 sequence (O14976 1-1311)
The experiment in a line: Multiplexed inhibitor beads / mass spectrometry. In kind it is binding. The conditions noted are these: SUM159 lysate, highest concentration (10 nM), 30 minutes on ice.

The next series has as its system GAK. The conditions noted are these: cited from earlier work.

Broadly, the Ki is a measure of affinity in units of concentration, obtained from inhibition or displacement. The IC50 is the concentration that inhibits the measured activity by half. Higher therefore signals weaker potency in that assay. In the case of `COc1cc(Nc2ccnc3ccccc23)cc(OC)c1OC` [Compound 41, N-(3,4,5-Trimethoxyphenyl)quinolin-4-amine], the Ki in series [1], in series [4] and in series [5] was over 100000 nM in each case. Further, in series [2], inhibition was half-maximal at 780 nM (IC50). Moreover, the “fold decrease in cellular potency” value in series [2] (nanoBRET, relative to 1) was found to be 4 fold. For the same molecule, the “fold drop in GAK potency” value in series [3] (relative to 1) stood at 10 fold. In series [3], the “NAK selectivity (ratio of GAK Ki and Ki of nearest NAK family member)” value was over 2500.

Turning to `COc1cc(Nc2ccnc3cc(F)cc(F)c23)cc(OC)c1OC` [Compound 44, 5,7-Difluoro-N-(3,4,5-trimethoxyphenyl)quinolin-4-amine], the Ki in series [1] was over 100000 nM; in series [3], 140 nM; in series [4], over 100000 nM; in series [5] it was over 100000 nM. Moreover, in series [2], the half-maximal inhibitory concentration (IC50) was determined as 4400 nM. Also, in series [3], the “NAK selectivity (ratio of GAK Ki and Ki of nearest NAK family member)” value is over 720.

In the case of `COc1cc(Nc2ccnc3ccc(C(C)(C)C)cc23)cc(OC)c1OC` [Compound 45, 6-(tert-Butyl)-N-(3,4,5-trimethoxyphenyl)quinolin-4-amine], in series [2], the concentration for half-maximal inhibition (IC50) worked out at 330 nM. The Ki in series [3] was 8.1 nM; in series [4] it was over 100000 nM; in series [5], over 100000 nM.

Consider `COc1cc(Nc2ccnc3ccc(C#N)cc23)cc(OC)c1OC` [Compound 46, 4-((3,4,5-Trimethoxyphenyl)amino)quinoline-6-carbonitrile], for which, in series [2], the concentration for half-maximal inhibition (IC50) is ~350 nM and 350 nM.

In turn, `COc1cc2nccc(Nc3cc(OC)c(OC)c(OC)c3)c2cc1OC` [Compound 49, 6,7-Dimethoxy-N-(3,4,5-trimethoxyphenyl)quinolin-4-amine] had a Ki in series [1] of over 100000 nM. In addition, the “fold cellular potency increase” value in series [2] (nanoBRET, over the single methoxy substitutions 48 & 50) is recorded as 14–17 fold. Also, the “kinases bound in MIB/MS (kinome selectivity)” value in series [6] was “binding to only GAK and RIPK2”. In addition, the “GAK depletion in MIB/MS” value in series [7] was about 10 fold.

With `COc1cc(Nc2c(C#N)cnc3cc(OCCCN4CCN(C)CC4)c(OC)cc23)c(Cl)cc1Cl` [bosutinib], the “off target activity on GAK, potency” value in the series with GAK is on record as “low nanomolar range”.

`Cc1nc(Nc2ncc(C(=O)Nc3c(C)cccc3Cl)s2)cc(N2CCN(CCO)CC2)n1` [dasatinib]: the “off target activity on GAK, potency” value in the series on GAK was “low nanomolar range”.

With `C#Cc1cccc(Nc2ncnc3cc(OCCOC)c(OCCOC)cc23)c1` [erlotinib], the “off target activity on GAK, potency” value in the series with GAK is reported as “low nanomolar range”.

Take `COc1cc2ncnc(Nc3ccc(F)c(Cl)c3)c2cc1OCCCN1CCOCC1` [gefitinib]: in the series with GAK, the “off target activity on GAK, potency” value was “low nanomolar range”.
